Experimental data reported in patent US12357650B2, “Methods and compositions for cancer therapies that include delivery of halogenated thymidines and thymidine phosphorlylase inhibitors in combination with radiation” (Shuttle Pharmaceuticals, Inc., priority 2017, dated 2025).
Values joined by “and” are separate entries in the source; they are usually repeats but may differ in a detail not shown here. Equal values may be shown once. Read-outs that look alike come from different tables or passages of the source.

Key:
[1] = Pharmacokinetic profile of IUdR (100 mg/kg) with and without Tipiracil in rats following single oral administration; assay type: in vivo, male Sprague-Dawley rats; settings: single oral dose, Example 1, sub-heading prints PO-20 (Compound A) alone or + 7.9 (Compound B) mg/kg
Protocol: (§1) The purpose of this study was to determine the pharmacokinetics parameters of IUdR in male Sprague-Dawley rats following single oral (PO) administration the IUdR (i.e., Compound A) and Tipiracil (i.e., Compound B).
A control formulation was prepared where Compound A was dissolved in 5% DMSO+95% PBS to yield a final concentration of 10 mg/mL for oral administration. The prepared formulation was white suspension (pH˜7).
A second formulation was prepared where Compound A and Compound B were dissolved in 5% DMSO+95% PBS to yield a final concentration of 10 mg/mL (Compound A) and 0.79 mg/mL (Compound B) for oral administration. The prepared formulation was white suspension (pH˜7).
(§2) Animal Acquisition and Assignment to Study. A total of 8 male experimental Sprague-Dawley Rats were transferred from stock colony, and 6 animals were placed on study.
(§3) Dose Administration. The test article was administered via a single oral administration.
(§4) Sample Collection and Bioanalysis. Blood samples (approximately 200 μL/sample) were collected via jugular vein at Pre-dose and Post-dose (5 min, 15 min, 30 min, 1 h, 2 h, 4 h, 6 h, 8 h and 24 h). Blood samples were placed into tubes containing K2EDTA and centrifuged conditions at 8000 rpm for 6 minutes at 2-8° C. to separate plasma from the samples. Following centrifugation, the resulting plasma were transferred to clean tubes and stored frozen at −80° C. pending bioanalysis.
(§5) Pharmacokinetic Analysis. The PK analysis and interpretation of the results were conducted by Medicilon Preclinical Research (Shanghai) LLC. A non-compartmental module of WinNonlin® Professional was used to calculate parameters. Any BLQs (LLOQ=10.0 ng/mL for Compound A) were omitted when calculate the PK parameters.
(§6) Clinical Observations. No abnormal observations were noted.

[2] = Pharmacokinetic profile of IUdR (20 mg/kg) with and without Tipiracil in rats following single oral administration; assay type: in vivo, male Sprague-Dawley rats; settings: for Plasma Concentration of Compound A / concentration at 0.083 hr / concentration at 0.25 hr / concentration at 0.5 hr / concentration at 1 hr: PO-20 mg/kg Compound A alone or + 7.9 mg/kg Compound B; for concentration at 0.083 hr / concentration at 0.25 hr / concentration at 0.5 hr / concentration at 1 hr: oral; for AUC(0-t) / Cmax: po
Protocol: as §1
A control formulation was prepared where Compound A was dissolved in 5% DMSO+95% PBS to yield a final concentration of 2 mg/mL for oral administration. The prepared formulation was colorless clear solution (pH˜8).
A second formulation was prepared where Compound A and Compound B were dissolved in 5% DMSO+95% PBS to yield a final concentration of 2 mg/mL (Compound A) and 0.79 mg/mL (Compound B) for oral administration. The prepared formulation was colorless clear solution (pH˜7).
as §2, §3, §4
as §5, with “(LLOQ=5.0” for “(LLOQ=10.0”
as §6

[3] = single oral dose, PO-20 (Compound A) alone or + 7.9 (Compound B) mg/kg, individual animals

SMILES: O=c1[nH]c(=O)n([C@H]2C[C@H](O)[C@@H](CO)O2)cc1I [Compound A, 5-iodo-2′-deoxyuridine]
- Cmax ([1]; male, Sprague-Dawley, rat, plasma, po, 100 mg/kg, group mean, read-out: Cmax of Compound A, Mean): 824 ng/mL
- AUC(0-t) ([1]; male, Sprague-Dawley, rat, plasma, po, 100 mg/kg, individual animals): 3320 ng·h/mL
- Cmax ([1]; male, Sprague-Dawley, rat, plasma, po, 100 mg/kg, individual animals, read-out: Cmax of Compound A): 944 ng/mL
- AUC(0-t) of Compound A ([1]; individual animals): 2214.79 ng·h/mL and 2609.22 ng·h/mL
- Cmax of Compound A ([1]; individual animals): 773.62 ng/mL and 755.39 ng/mL
- Tmax of Compound A ([1]; individual animals): 120 min
- Plasma Concentration of Compound A ([2]; 0.083 hr, individual animals, LLOQ 5 ng/mL): 25.16 ng/mL and 16.04 ng/mL
- Plasma Concentration of Compound A ([2]; 0.25 hr, individual animals, LLOQ 5 ng/mL): 54.67 ng/mL and 56.48 ng/mL
- Plasma Concentration of Compound A ([2]; 0.5 hr, individual animals, LLOQ 5 ng/mL): 63.23 ng/mL and 57.34 ng/mL
- Plasma Concentration of Compound A ([2]; 1 hr, individual animals, LLOQ 5 ng/mL): 19.19 ng/mL and 21.93 ng/mL
- Plasma Concentration of Compound A ([2]; 2 hr, individual animals, LLOQ 5 ng/mL): BLQ
- Plasma Concentration of Compound A ([2]; 4 hr, individual animals, LLOQ 5 ng/mL): BLQ
- Plasma Concentration of Compound A ([2]; 6 hr, individual animals, LLOQ 5 ng/mL): BLQ
- Plasma Concentration of Compound A ([2]; 8 hr, individual animals, LLOQ 5 ng/mL): BLQ
- Plasma Concentration of Compound A ([2]; 24 hr, individual animals, LLOQ 5 ng/mL): BLQ
- Tmax ([2]; male, Sprague-Dawley, rat, plasma, 20 mg/kg, single oral dose, PO-20 (Compound A) alone or + 7.9 (Compound B) mg/kg, individual animals): 30 min
- concentration at 0.083 hr ([2]; male, Sprague-Dawley, rat, plasma, 20 mg/kg, 0.083 hr, group mean, read-out: Plasma Concentration of Compound A, Mean): 21.9 ng/mL
- concentration at 0.083 hr ([2]; male, Sprague-Dawley, rat, plasma, 20 mg/kg, 0.083 hr, individual animals, LLOQ 5 ng/mL, read-out: Plasma Concentration of Compound A): 24.5 ng/mL
- concentration at 0.25 hr ([2]; male, Sprague-Dawley, rat, plasma, 20 mg/kg, 0.25 hr, group mean, read-out: Plasma Concentration of Compound A, Mean): 49.2 ng/mL
- concentration at 0.25 hr ([2]; male, Sprague-Dawley, rat, plasma, 20 mg/kg, 0.25 hr, individual animals, LLOQ 5 ng/mL, read-out: Plasma Concentration of Compound A): 36.5 ng/mL
- concentration at 0.5 hr ([2]; male, Sprague-Dawley, rat, plasma, 20 mg/kg, 0.5 hr, group mean, read-out: Plasma Concentration of Compound A, Mean): 57.7 ng/mL
- concentration at 0.5 hr ([2]; male, Sprague-Dawley, rat, plasma, 20 mg/kg, 0.5 hr, individual animals, LLOQ 5 ng/mL, read-out: Plasma Concentration of Compound A): 52.5 ng/mL
- concentration at 1 hr ([2]; male, Sprague-Dawley, rat, plasma, 20 mg/kg, 1 hr, group mean, read-out: Plasma Concentration of Compound A, Mean): 22.8 ng/mL
- concentration at 1 hr ([2]; male, Sprague-Dawley, rat, plasma, 20 mg/kg, 1 hr, individual animals, LLOQ 5 ng/mL, read-out: Plasma Concentration of Compound A): 27.2 ng/mL
- AUC(0-t) ([2]; male, Sprague-Dawley, rat, plasma, 20 mg/kg, oral administration, Example 2 (20 mg/kg IUdR, ± 7.9 mg/kg Tipiracil), comparison table, mean, read-out: AUC(0-t) of Compound A): 40.3 ng·h/mL
- Cmax ([2]; male, Sprague-Dawley, rat, plasma, 20 mg/kg, oral administration, Example 2 (20 mg/kg IUdR, ± 7.9 mg/kg Tipiracil), comparison table, mean, read-out: Cmax of Compound A): 57.7 ng/mL
- AUC(0-t) ([2]; male, Sprague-Dawley, rat, plasma, 20 mg/kg, single oral dose, PO-20 (Compound A) alone or + 7.9 (Compound B) mg/kg, group mean, read-out: AUC(0-t) of Compound A, Mean): 40.3 ng·h/mL
- Cmax ([2]; male, Sprague-Dawley, rat, plasma, 20 mg/kg, single oral dose, PO-20 (Compound A) alone or + 7.9 (Compound B) mg/kg, group mean, read-out: Cmax of Compound A, Mean): 57.7 ng/mL
- AUC(0-t) ([2]; male, Sprague-Dawley, rat, plasma, 20 mg/kg, single oral dose, PO-20 (Compound A) alone or + 7.9 (Compound B) mg/kg, individual animals, read-out: AUC(0-t) of Compound A): 40.8 ng·h/mL
- Cmax ([2]; male, Sprague-Dawley, rat, plasma, 20 mg/kg, single oral dose, PO-20 (Compound A) alone or + 7.9 (Compound B) mg/kg, individual animals, read-out: Cmax of Compound A): 57.3 ng/mL
- AUC(0-t) of Compound A [2, 3]: 37.15 ng·h/mL and 43.05 ng·h/mL
- Cmax of Compound A [2, 3]: 52.45 ng/mL and 63.23 ng/mL
